Experimental data taken from US10857105B2, “Compounds and compositions for intracellular delivery of therapeutic agents” (ModernaTX, Inc., priority 2017, dated 2020).

What was measured:
luciferase (Luc) mRNA = assay: Luciferase expression after subcutaneous administration to mice; format: in vivo, CD-1 mice; details: 6 hr. time point, relative to MC3; for Novel lipid/MC3 expression ratio, s.c. Luc (mpk) 0.5: 0.5 mpk
From the text: FIGS. 19A and 19B show the results of luciferase expression measured upon subcutaneous administration of various nanoparticle compositions to CD-1 mice at 0.05 mpk. FIG. 19A is a bar graph showing total flux at 6 hr after administration. The numbers above each bar indicate the expression ratio relative to MC3. […] Numbers 1-12 in the Figures refer to compositions containing the following: 1: PBS, 2: MC3, 3: Compound 25; 4: Compound 30; 5: Compound 20; 6: Compound 110; 7: Compound 112; 8: Compound 113; 9: Compound 72; 10: Compound 75; 11: Compound 122, 12: Compound 24.
FIGS. 20A-20C is a series of graphs summarizing luciferase expression levels in (FIG. 20A) spleen (FIG. 20B) liver, and (FIG. 20C) at the injection site, ex vivo, 24 h after administration of nanoparticle compositions containing compounds of the disclosure to CD-1 mice. Total light flux values were acquired via body luminescent imaging (BLI). PBS (phosphate buffered saline) was used as a control. Numbers 1-12 in the Figures refer to compositions containing the following: 1: PBS, 2: MC3, 3: Compound 25; 4: Compound 30; 5: Compound 20; 6: Compound 110; 7: Compound 112; 8: Compound 113; 9: Compound 72; 10: Compound 75; 11: Compound 122, 12: Compound 24.
FIGS. 22A-22C are a series of graphs summarizing luciferase expression levels at (FIG. 22A) 3 h, (FIG. 22B) 6 h, and (FIG. 22C) 24 h after subcutaneous administration of nanoparticle compositions containing compounds of the disclosure to mice. Total light flux values were acquired via body luminescent imaging (BLI). PBS (phosphate buffered saline) was used as a control. Numbers 1-12 in the Figures refer to compositions containing the following: 1: PBS, 2: MC3, 3: Compound 168; 4: Compound 23; 5: Compound 19; 6: Compound 108; 7: Compound 109; 8: Compound 111; 9: Compound 60; 10: Compound 61; 11: Compound 69, 12: Compound 128.

NHP tissues = assay: Lipid tissue accumulation in NHP after a single dose; format: in vivo, cynomolgus monkey
Protocol: NHP studies: Nonhuman primate studies were conducted using naïve cynomolgus monkeys (cynos), 2-4 years old, weighing 2-6 kg. No treatment randomization or blinding methods were used for any of the animal studies. Sample sizes were determined by the resource equation method. For injection, mRNA-LNPs in phosphate buffered saline (PBS) were administered by 60-minute intravenous infusion using a temporary indwelling catheter inserted in a peripheral vein.
NHP more closely approximates clinical responses for LNP-based systems than rodent (DeRosa, F., Guild, B., Karve, S., Smith, L., Love, K., Dorkin, J R., et. al. Therapeutic efficacy in a hemophilia B model using a biosynthetic mRNA liver depot system. Gene Ther. 2016, 23, 699-707, the contents of which are incorporated herein by reference in their entireties). In order to translate the findings from rodent to the non-human primate (NHP), the lipids were tested in NHP. For this purpose, it was evaluated whether the improved expression observed in mouse and rat with LNPs containing compound 18 could also be achieved in NHP after a single dose. […] A dose of 0.01 mg/kg of hEPO-encoding mRNA was delivered via a 60 minute intravenous infusion. […] A separate study evaluated the lipid tissue accumulation in NHP after a single dose.

mouse tissues = assay: Lipid clearance from mouse tissues after weekly dosing 0.05 mg/kg mRNA on day 1, 8 and 15; format: in vivo
Protocol: Repeat dosing of mRNA in an MC3-based LNP for a therapeutic indication would be expected to lead to accumulation of MC3 in tissues, based on the measured half-life. Therefore it was investigated whether the favorable single dose pharmacokinetics of compound 18 were maintained with weekly dosing. Clearance of MC3 and compound 18 from multiple mouse tissues was measured after dosing 0.05 mg/kg mRNA on day 1, 8 and 15 (FIG. 30A). Following dosing with MC3 LNPs, lipid was detected in liver, spleen, plasma, kidney, heart and lung; with liver and spleen containing the largest concentrations (FIG. 30A, for full panel of tissues see FIG. 35A). […] Compound 18 was also detected in plasma, lung, and kidney, but not in heart (FIG. 35A).

Molecule	Novel lipid/MC3 expression ratio, s.c. Luc (mpk) 0.5 (luciferase (Luc) mRNA)	lipid residue in tissues at 12 hours post dose (NHP tissues)	lipid levels in tissues on weekly dosing (mouse tissues)	Novel lipid/MC3 expression ratio, s.c. Luc (mpk) 0.05 (luciferase (Luc) mRNA; 0.05 mpk)
CCCCCCCCCOC(=O)CCCCCCCN(CCO)CCCCCCCC(=O)OC(CCCCCCCC)CCCCCCCC [Compound 18, Heptadecan-9-yl 8-((2-hydroxyethyl)(8-(nonyloxy)-8-oxooctyl)amino)octanoate]	1.88	significantly lower levels	significantly lower levels than MC3	–
CCCCCC=CCC=CCCCCCCCCC(CCCCCCCCC=CCC=CCCCCC)OC(=O)CCCN(C)C (stereo not shown) [MC3, heptatriaconta-6,9,28,31-tetraen-19-yl 4-(dimethylamino)butanoate, reference compound]	–	found in multiple tissues	Accumulation of MC3 was observed after each dose	–
Nonyl 8-((6-(heptadecan-9-yloxy)-6-oxohexyl)(2-hydroxyethyl)amino) octanoate [Compound 27]	4.87	–	–	14.45
